Starred links: 1 amine or outer side, 2 acyl side, 3 side chain; linkers in the order of their positions; H or OH if unused. Non-standard residues stand in square brackets, D forms with d. Primed or numbered codes have the meaning given here. No end group written: not given here. *: point of attachment. γGlu = O=C(O)[C@H](CCC(=O)[*:2])N[*:1]; Stearoyl = CCCCCCCCCCCCCCCCCC(=O)*; Palmitoyl = CCCCCCCCCCCCCCCC(=O)*; Myristoyl = CCCCCCCCCCCCCC(=O)*; Lauroyl = CCCCCCCCCCCC(=O)*; PEG12′ = not defined here
What was measured:
Chymotrypsin = assay: Inhibition of enzymatic degradation of a model GLP-1 (FRET substrate) by chymotrypsin; format: biochemical; conditions: for EC50: read-out: EC50 Chymotrypsin (0.001 mg/ml), 0.001 mg/ml chymotrypsin, 37° C., ± standard error if at least 3 measurements
Excerpt: (§1) The use of Förster resonance energy transfer (FRET), also known as fluorescence resonance energy transfer, substrates to monitor activity of proteolytic enzymes is known in the field (for example Anjuere, F. et al. (1993). Biochem J 291 (Pt 3), 869-73).
(§2) Model GLP-1 analogue was designed as FRET substrate by incorporation of 7-Methoxycoumarin-4-acetic acid (MCA) group as the donor chromophore and dinitrophenol group (DNP) as the acceptor chromophore.
(§3) An assay following the increase in fluorescence as a function of time was established in 96 well format using Varioskan Flash Multimode Meter (Thermo Scientific). Each well contained 70 μl of Dulbecco's phosphate buffer saline (Invitrogen catalogue #14190-094), 10 μl of 100 μM GLP-1 FRET substrate, 10 μl of N-terminally acylated peptide or oligopeptide of the invention in varying concentration and 10 μl of a stock solution of an enzyme (chymotrypsin, trypsin, elastase, etc.). The incubations were performed at 37° C. Fluorescence (320 nm excitation wavelength and 405 nm emission wavelength) was measured immediately after addition of the enzyme to the 96 well plate and also every minute for at least the next 30 minutes. The concentration of the enzyme was optimized to allow determination of slopes for the time course of initial fluorescence increase with and without the N-terminally acylated peptides or oligopeptides of the invention. The slopes were determined by linear regression of the linear part of the fluorescence trace (for example, the first 10 min of the reaction). Each assay was performed in duplicate and average of the two traces was included in the calculations. The relative effect of N-terminally acylated peptide or oligopeptides of the invention on enzymatic degradation of GLP-1 FRET substrate was obtained by comparison of the slopes achieved by the same concentration of the N-terminally acylated peptide or oligopeptides. […] This was done by plotting the slopes achieved with different concentrations of the N-terminally acylated peptide or oligopeptides of the invention as a function of their concentrations and fitting the experimental results using, for example, sigmoidal logistic regression (2 parameters, Sigma Plot v 11). Inhibition constants for the interaction between the N-terminally acylated peptide or oligopeptides of the invention and proteolytic enzymes were also obtained by performing the assay described above with varying concentrations of the inhibitor and substrate and analyzing the results, for example, by double reciprocal transformation as known to the person skilled in the art and described for example in Hubalek, F. et al., J. Med. Chem. 47, 1760-1766 (2004).
(§4) The EC50 was determined for the following compounds. EC50±standard error is reported if the results of at least 3 independent measurements were available.

Trypsin = assay: Inhibition of enzymatic degradation of a model GLP-1 (FRET substrate) by trypsin; format: biochemical; conditions: for EC50: read-out: EC50 Trypsin (0.001 mg/ml), 0.001 mg/ml trypsin, 37° C.
Excerpt: as §1, §2, §3, §4

[1] = compound 0.1 mM, buffer containing 8% DMSO

| EC50 (Chymotrypsin) [µM] | EC50 (Trypsin) [µM] | Substance | further results |
| --- | --- | --- | --- |
| 57 | 187 | N-dodecanoyl-Ala-Ala-Ala-Ala-Ala-Pro-Phe-OH [Example 141] |  |
| > 500 |  | N-dodecanoyl-Ala-Ala-Pro-His-OH (Lauroyl-AAPH-OH; SMILES CCCCCCCCCCCC(=O)N[C@@H](C)C(=O)N[C@@H](C)C(=O)N1CCC[C@H]1C(=O)N[C@@H](Cc1c[nH]cn1)C(=O)O) [Example 180] |  |
| 182 |  | N-dodecanoyl-Ala-Pro-Phe-OH [Example 35] |  |
|  |  | N-dodecanoyl-Gly-Ala-Pro-Tyr-OH [Example 37] | Slope of the initial increase in fluorescence obtained during incubation with 0.001 mg/ml Chymotrypsin (Chymotrypsin; [1]): 0.66; Slope of the initial increase in fluorescence obtained during incubation with 0.001 mg/ml Trypsin (Trypsin; [1]): 1.78 |
|  |  | N-dodecanoyl-Ile-Ala-Ala-Pro-Tyr-OH [Example 40] | Slope of the initial increase in fluorescence obtained during incubation with 0.001 mg/ml Chymotrypsin (Chymotrypsin; [1]): 0.41; Slope of the initial increase in fluorescence obtained during incubation with 0.001 mg/ml Trypsin (Trypsin; [1]): 1.31 |
| 27 | 151 | N-dodecanoyl-Leu-Thr-Trp-Pro-Tyr-OH [Example 154] |  |
|  |  | N-dodecanoyl-Lys-Ala-Ala-Pro-Tyr-OH [Example 44] | Slope of the initial increase in fluorescence obtained during incubation with 0.001 mg/ml Chymotrypsin (Chymotrypsin; [1]): 0.00; Slope of the initial increase in fluorescence obtained during incubation with 0.001 mg/ml Trypsin (Trypsin; [1]): 0.96 |
| 132 | 401 | N-dodecanoyl-Thr-Ala-Ala-Pro-Phe-OH [Example 172] |  |
|  |  | N-dodecanoyl-βAla-βAla-Pro-Phe-Pro-OH [Example 6] | Slope of the initial increase in fluorescence obtained during incubation with 0.001 mg/ml Chymotrypsin (Chymotrypsin; compound 1 mM): 0.24; Slope of the initial increase in fluorescence obtained during incubation with 0.001 mg/ml Trypsin (Trypsin; compound 1 mM): 0.35 |
| > 500 |  | N-dodecanoyl-γGlu-Ala-Ala-Pro-Arg-Pro-OH [Example 27] |  |
| > 500 |  | N-dodecanoyl-γGlu-His-Ala-Ala-Pro-Tyr-OH [Example 190] |  |
| 23 ± 2 | > 500 | N-hexadecanoyl-Ala-Ala-Pro-Phe-OH (Palmitoyl-AAPF-OH) [Example 29] |  |
| 40 | 72 | N-hexadecanoyl-Glu-Ala-Ala-Pro-D-Phe-OH [Example 144] |  |
| 56 |  | N-hexadecanoyl-Glu-Ala-Ala-Pro-D-Phe-OH [Example 186] |  |
| 17 | 31 | N-hexadecanoyl-Thr-Ala-Ala-Pro-Phe-OH [Example 175] |  |
| 29 ± 4 | 66 | N-hexadecanoyl-γGlu-Ala-Ala-Pro-Phe-OH [Example 32] |  |
| 71 | 67 | N-hexadecanoyl-γGlu-Ala-Ala-Pro-Phe-OH [Example 188] |  |
| 48 | 57 | N-hexadecanoyl-γGlu-Ala-Pro-Phe-OH (Palmitoyl-[γGlu]APF-OH; SMILES CCCCCCCCCCCCCCCC(=O)N[C@@H](CCC(=O)N[C@@H](C)C(=O)N1CCC[C@H]1C(=O)N[C@@H](Cc1ccccc1)C(=O)O)C(=O)O) [Example 149] |  |
| 57 | 88 | N-hexadecanoyl-γGlu-D-Ala-D-Ala-D-Pro-D-Phe-OH [Example 157] |  |
| 67 | 33 | N-hexadecanoyl-γGlu-D-Ala-D-Pro-D-Phe-OH [Example 182] |  |
| 56 | 76 | N-hexadecanoyl-γGlu-DAla-DPro-DPhe-OH [Example 155] |  |
| 4 | 7 | N-icosanoyl-γGlu-Ala-Ala-Pro-Phe-OH [Example 161] |  |
| 9 | 13 | N-icosanoyl-γGlu-Ala-Pro-Phe-OH (icosanoyl-[γGlu]APF-OH) [Example 151] |  |
| 17 | 16 | N-octadecanoyl-γGlu-Ala-Ala-Pro-Phe-OH [Example 160] |  |
| 13 | 22 | N-octadecanoyl-γGlu-Ala-Pro-Phe-OH (Stearoyl-[γGlu]APF-OH; SMILES CCCCCCCCCCCCCCCCCC(=O)N[C@@H](CCC(=O)N[C@@H](C)C(=O)N1CCC[C@H]1C(=O)N[C@@H](Cc1ccccc1)C(=O)O)C(=O)O) [Example 150] |  |

| EC50 (Chymotrypsin) [µM] | EC50 (Trypsin) [µM] | Substance | further results |
| --- | --- | --- | --- |
| 136 | 177 | N-tetradecanoy-γGlu-His-Ala-Ala-Pro-Tyr-OH [Example 191] |  |
| 28 | 374 | N-tetradecanoyl-Ala-Ala-Ala-Ala-Pro-Phe-OH [Example 140] |  |
| 73 | 44 | N-tetradecanoyl-Ala-Ala-Pro-D-Phe-OH [Example 185] |  |
| 2 | 16 | N-tetradecanoyl-Arg-His-Ala-Arg-Pro-Phe-OH [Example 197] |  |
| 69 | 38 | N-tetradecanoyl-D-Ala-D-Ala-D-Pro-D-Phe-OH [Example 184] |  |
| 17 | 7 | N-tetradecanoyl-D-His-D-Ala-D-Arg-D-Pro-D-Phe-OH [Example 195] |  |
| 211 |  | N-tetradecanoyl-Glu-Ala-Ala-Pro-D-Phe-OH [Example 174] |  |
| 94 | 58 | N-tetradecanoyl-Glu-Ala-Ala-Pro-Phe-OH [Example 162] |  |
| 94 | 271 | N-tetradecanoyl-Glu-Ala-Ala-Pro-Phe-OH [Example 163] (Myristoyl-EAAPF-OH; SMILES CCCCCCCCCCCCCC(=O)N[C@@H](CCC(=O)O)C(=O)N[C@@H](C)C(=O)N[C@@H](C)C(=O)N1CCC[C@H]1C(=O)N[C@@H](Cc1ccccc1)C(=O)O) |  |
| 14 | 388 | N-tetradecanoyl-Glu-Ala-Ala-Pro-Trp-OH [Example 143] |  |
| 14 | 130 | N-tetradecanoyl-Glu-Ala-Ala-Pro-Trp-OH [Example 187] |  |
| 293 |  | N-tetradecanoyl-Glu-Ala-Pro-Phe-OH (Myristoyl-EAPF-OH; SMILES CCCCCCCCCCCCCC(=O)N[C@@H](CCC(=O)O)C(=O)N[C@@H](C)C(=O)N1CCC[C@H]1C(=O)N[C@@H](Cc1ccccc1)C(=O)O) [Example 152] |  |
| 61 | 69 | N-tetradecanoyl-His-Ala-Ala-Pro-Phe-OH [Example 166] |  |
| 34 | 303 | N-tetradecanoyl-His-Ala-Trp-Pro-Phe-OH [Example 192] |  |
| 20 | 37 | N-tetradecanoyl-Leu-Ala-Ala-Pro-Tyr-OH [Example 142] |  |
| 35 | 122 | N-tetradecanoyl-Leu-Ala-Ala-Pro-Tyr-OH [Example 159] |  |
| 83 | 43 | N-tetradecanoyl-Leu-betaAla-Ala-Pro-DPhe-OH [Example 145] |  |
| 90 | 169 | N-tetradecanoyl-Lys-Ala-Arg-Pro-Phe-OH [Example 193] |  |
| 377 |  | N-tetradecanoyl-γGlu-Ala-Pro-D-Phe-OH [Example 168] |  |
| 300 |  | N-tetradecanoyl-γGlu-Ala-Pro-Phe-OH [Example 181] |  |
| 386 |  | N-tetradecanoyl-γGlu-D-Ala-D-Pro-D-Phe-OH [Example 183] |  |
| 287 |  | N-tetradecanoyl-γGlu-γGlu-Ala-Pro-Phe-OH [Example 169] |  |
| 452 |  | N-tetradecanoyl-γGlu-γGlu-Phe-Phe-OH [Example 171] |  |
| > 500 |  | N-tetradecanoyl-γGlu-γGlu-Pro-Phe-OH [Example 170] |  |
| > 500 |  | PEG12-Ala-Ala-Pro-Phe-OH ([PEG12′]AAPF-OH) [Example 167] |  |

Reference: patent US20150038435A1, “N-TERMINALLY MODIFIED OLIGOPEPTIDES AND USES THEREOF” (Novo Nordisk A/S, priority 2012, published 2015)
